From PubChem BioAssay (NCI)
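GI50 = concentration required for 50% inhibition of growth. At the TGI there is no net growth.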

How the values were obtained:
Experiment in all cases: NCI tumour cell line growth inhibition, 384-well format
OVCAR-4 ovarian = system: OVCAR-4 ovarian
LOX IMVI melanoma = system: LOX IMVI melanoma
OVCAR-5 ovarian = system: OVCAR-5 ovarian
SF-295 CNS = system: SF-295 CNS
HOP-92 NSCLC = system: HOP-92 NSCLC
SK-MEL-5 melanoma = system: SK-MEL-5 melanoma
DU-145 prostate = system: DU-145 prostate
COLO 205 colon = system: COLO 205 colon
SK-MEL-28 melanoma = system: SK-MEL-28 melanoma
OVCAR-3 ovarian = system: OVCAR-3 ovarian
HOP-62 NSCLC = system: HOP-62 NSCLC
MOLT-4 leukemia = system: MOLT-4 leukemia
NCI-H23 lung = system: NCI-H23 lung

CCNC(=O)c1cc2c(-c3cc(C(C)(C)O)ccc3Oc3c(C)cc(F)cc3C)cn(C)c(=O)c2[nH]1
GI50 (OVCAR-4 ovarian): 201 nM | TGI (OVCAR-4 ovarian): 870 nM | GI50 (LOX IMVI melanoma): 507 nM | TGI (LOX IMVI melanoma): 1840 nM | GI50 (OVCAR-5 ovarian): 1030 nM | TGI (OVCAR-5 ovarian): 9890 nM | GI50 (SF-295 CNS): 3000 nM | TGI (SF-295 CNS): 11100 nM | GI50 (HOP-92 NSCLC): 1430 nM | TGI (HOP-92 NSCLC): 11800 nM | GI50 (SK-MEL-5 melanoma): 1270 nM | TGI (SK-MEL-5 melanoma): 3680 nM | GI50 (DU-145 prostate): 2520 nM | TGI (DU-145 prostate): 14700 nM | GI50 (COLO 205 colon): 1100 nM | TGI (COLO 205 colon): 2750 nM | GI50 (SK-MEL-28 melanoma): 2960 nM | TGI (SK-MEL-28 melanoma): 15900 nM | GI50 (OVCAR-3 ovarian): 602 nM | TGI (OVCAR-3 ovarian): 2460 nM | GI50 (HOP-62 NSCLC): 1030 nM | TGI (HOP-62 NSCLC): 4950 nM | GI50 (MOLT-4 leukemia): 432 nM | TGI (MOLT-4 leukemia): 1900 nM | GI50 (NCI-H23 lung): 725 nM | TGI (NCI-H23 lung): 2810 nM
